This note sets out measurements from patent US8653012B2, “Mutual solvent-soluble and/or alcohol blends-soluble particles for viscoelastic surfactant fluids” (Baker Hughes Incorporated, priority 2008, dated 2014).

The nature of data set [1]: Water solubility of dicarboxylic acid agents. It is filed as physicochemical. The text has this: (§1) Two different dicarboxylic particles were used in the Examples herein. […] LCA141 is dodecanedioic acid (DDDA) (Agent B in U.S. Pat. No. 6,994,166), also from INVISTA.
A short description of data set [2]: Solubility of dicarboxylic acid agents in various solvents. It is filed as physicochemical. The following applies: 183° F. (84° C.).
Source text: as §1

In the case of `O=C(O)CCCCCCCCCCC(=O)O` [LCA141, dodecanedioic acid], the Water solubility entry in data set [1] (70° F. (21° C.)) is listed as “Very low (70° F. (21° C.))”; in data set [1] (140° F. (60° C.)) it was 0.012% (140° F. (60° C.)); in data set [1] (176° F. (80° C.)) it was 0.01% (176° F. (80° C.)); in data set [1] (212° F. (100° C.)), 0.04% (212° F. (100° C.)). Further, the “Solubility, %” value was 6.99 (183° F. (84° C.)) % in data set [2] (Blend C (50:50 v/v isopropanol and oxyalkylated alcohol mixture)); 5.89 (183° F. (84° C.)) % in data set [2] (Ethylene glycol monobutyl ether (EGMBE)); >9.73 (183° F. (84° C.)) % in data set [2] (Isopropanol).
